Test results taken from US10752624B2, “Kinase inhibitors” (Origenis GmbH, priority 2012, dated 2020).
pIC50: −log10 of the molar value.

What was measured:
[1] = target: T1, SYK kinase (Homo sapiens, UniProt P43405); assay: SYK Assay (OMNIA Kinase Assay, SOX peptide fluorescence); type: biochemical; conditions: 1 mM ATP, 10 μM Omnia Peptide Substrate Tyr 7, 30° C., readings for 30 minutes; read-out: SYK Activities: IC50
T1 construct: purchased Invitrogen, Carlsbad
Procedure, shortened: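 The reaction was run at 30 °C with 1 mM ATP, 0.2 mM DTT and 10 μM Omnia Tyr 7 peptide (final) and started by adding SYK. Chelation-enhanced SOX fluorescence (ex 360/em 485 nm) was read every 30 s for 30 min. Reaction velocity versus inhibitor concentration was fitted sigmoidally for IC50.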

[2] = target: LRRK2 (Homo sapiens, UniProt Q5S007); assay: LRRK2-LRRK2 G2019S-Assay (LanthaScreen Eu Kinase Binding Assay); conditions: 5 nM LRRK2, 10 nM tracer 236, 2 nM EU-Anti-GST antibody, 1 h at RT; read-out: LRRK2 Activities: IC50
Sequence of LRRK2 (Q5S007 970-2527 limits assumed): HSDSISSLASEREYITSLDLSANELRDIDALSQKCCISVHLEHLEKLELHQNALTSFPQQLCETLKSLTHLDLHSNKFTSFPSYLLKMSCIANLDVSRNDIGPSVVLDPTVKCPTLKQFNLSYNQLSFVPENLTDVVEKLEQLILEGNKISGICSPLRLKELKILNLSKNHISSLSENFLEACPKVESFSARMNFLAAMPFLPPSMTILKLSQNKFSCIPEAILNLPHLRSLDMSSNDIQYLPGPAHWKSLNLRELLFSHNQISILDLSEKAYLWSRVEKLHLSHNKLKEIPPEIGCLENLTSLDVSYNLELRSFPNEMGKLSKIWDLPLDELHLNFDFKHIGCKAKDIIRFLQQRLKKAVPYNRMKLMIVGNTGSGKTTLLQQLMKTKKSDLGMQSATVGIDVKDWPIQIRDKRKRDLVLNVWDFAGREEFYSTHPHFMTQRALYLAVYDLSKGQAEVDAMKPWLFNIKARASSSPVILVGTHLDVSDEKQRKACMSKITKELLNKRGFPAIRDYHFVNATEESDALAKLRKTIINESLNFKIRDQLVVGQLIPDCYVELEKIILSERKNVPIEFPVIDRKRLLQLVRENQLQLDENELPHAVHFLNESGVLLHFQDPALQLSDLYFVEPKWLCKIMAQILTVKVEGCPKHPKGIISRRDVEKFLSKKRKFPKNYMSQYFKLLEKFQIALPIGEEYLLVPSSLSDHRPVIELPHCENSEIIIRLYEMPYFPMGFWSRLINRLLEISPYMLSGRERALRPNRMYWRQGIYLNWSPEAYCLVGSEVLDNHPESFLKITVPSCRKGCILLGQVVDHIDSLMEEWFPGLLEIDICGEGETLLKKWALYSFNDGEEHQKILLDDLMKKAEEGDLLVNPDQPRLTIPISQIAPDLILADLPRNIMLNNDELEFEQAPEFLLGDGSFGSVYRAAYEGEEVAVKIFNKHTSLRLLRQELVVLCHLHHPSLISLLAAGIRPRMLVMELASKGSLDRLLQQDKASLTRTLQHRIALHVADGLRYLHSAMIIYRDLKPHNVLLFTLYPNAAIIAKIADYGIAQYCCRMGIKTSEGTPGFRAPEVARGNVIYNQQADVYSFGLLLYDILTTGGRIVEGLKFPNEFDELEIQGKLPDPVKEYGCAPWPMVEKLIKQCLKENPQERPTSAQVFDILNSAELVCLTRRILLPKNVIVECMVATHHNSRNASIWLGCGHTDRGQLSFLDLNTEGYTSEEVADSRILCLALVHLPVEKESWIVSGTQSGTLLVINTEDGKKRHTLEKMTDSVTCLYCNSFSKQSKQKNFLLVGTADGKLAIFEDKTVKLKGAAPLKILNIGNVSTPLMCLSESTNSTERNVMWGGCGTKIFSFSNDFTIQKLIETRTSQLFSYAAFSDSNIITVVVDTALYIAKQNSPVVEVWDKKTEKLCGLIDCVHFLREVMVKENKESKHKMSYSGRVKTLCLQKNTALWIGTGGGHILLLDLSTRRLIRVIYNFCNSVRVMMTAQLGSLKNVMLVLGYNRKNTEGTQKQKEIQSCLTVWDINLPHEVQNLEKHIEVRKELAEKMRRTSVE
Procedure, shortened: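 In a TR-FRET tracer displacement assay, LRRK2 or its mutants at 5 nM were mixed with 2 nM Eu-anti-GST antibody and 10 nM tracer 236 in kinase buffer A for 1 h at RT. The 665/615 nm emission ratio was plotted against inhibitor concentration, and IC50 came from a variable-slope sigmoidal fit.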

| SMILES | pIC50 [1] | pIC50 [2] |
| --- | --- | --- |
| COc1nn(C(C)C)cc1Nc1nc2ccc(S(C)(=O)=O)cc2c2cn[nH]c12 [Example 226, N-(1-isopropyl-3-methoxy-1H-pyrazol-4-yl)-8-(methylsulfonyl)-3H-pyrazolo[3,4-c]quinolin-4-amine] | 6.00 to 7.00 | > 8.00 |
| COc1c(Nc2nc3ccc(S(C)(=O)=O)cc3c3cn[nH]c23)cnn1C(C)C [Example 227, N-(1-isopropyl-5-methoxy-1H-pyrazol-4-yl)-8-(methylsulfonyl)-3H-pyrazolo[3,4-c]quinolin-4-amine] | 6.00 to 7.00 | > 8.00 |
| COc1nn(C2CCN(C(C)(C)C)CC2)cc1Nc1nc2ccc(S(C)(=O)=O)cc2c2cn[nH]c12 [Example 228, N-(1-(1-(tert-butyl)piperidin-4-yl)-3-methoxy-1H-pyrazol-4-yl)-8-(methylsulfonyl)-3H-pyrazolo[3,4-c]quinolin-4-amine] | 6.00 to 7.00 | 7.00 to 8.00 |
| COc1c(Nc2nc3ccc(S(C)(=O)=O)cc3c3cn[nH]c23)cnn1C1CCN(C(C)(C)C)CC1 [Example 229, N-(1-(1-(tert-butyl)piperidin-4-yl)-5-methoxy-1H-pyrazol-4-yl)-8-(methylsulfonyl)-3H-pyrazolo[3,4-c]quinolin-4-amine] | 6.00 to 7.00 | 7.00 to 8.00 |
| COCCCn1cc(Nc2nc3ccc(S(C)(=O)=O)cc3c3cn[nH]c23)c(OC)n1 [Example 231, N-(3-methoxy-1-(3-methoxypropyl)-1H-pyrazol-4-yl)-8-(methylsulfonyl)-3H-pyrazolo[3,4-c]quinolin-4-amine] | 6.00 to 7.00 | 7.00 to 8.00 |
| COCCCn1ncc(Nc2nc3ccc(S(C)(=O)=O)cc3c3cn[nH]c23)c1OC [Example 232, N-(5-methoxy-1-(3-methoxypropyl)-1H-pyrazol-4-yl)-8-(methylsulfonyl)-3H-pyrazolo[3,4-c]quinolin-4-amine] | 6.00 to 7.00 | 7.00 to 8.00 |
| CC(C)n1ncc(Nc2nc3ccc(S(C)(=O)=O)cc3c3cn[nH]c23)c1Cl [Example 233, N-(5-chloro-1-isopropyl-1H-pyrazol-4-yl)-8-(methylsulfonyl)-3H-pyrazolo[3,4-c]quinolin-4-amine] | 6.00 to 7.00 | > 8.00 |
| COc1cccc2nc(Nc3cnn(C4CCNCC4)c3)c3[nH]ncc3c12 [Example 236, 9-methoxy-N-(1-(piperidin-4-yl)-1H-pyrazol-4-yl)-3H-pyrazolo[3,4-c]quinolin-4-amine] | 7.00 to 8.00 | > 8.00 |
| CC(C)n1cc(Nc2nc3ccc(S(C)(=O)=O)cc3c3cn[nH]c23)c(C#N)n1 [Example 246, 1-isopropyl-4-((8-(methylsulfonyl)-3H-pyrazolo[3,4-c]quinolin-4-yl)amino)-1H-pyrazole-3-carbonitrile] | 6.00 to 7.00 | 7.00 to 8.00 |
| CC(C)n1ncc(Nc2nc3ccc(S(C)(=O)=O)cc3c3cn[nH]c23)c1C#N [Example 247, 1-isopropyl-4-((8-(methylsulfonyl)-3H-pyrazolo[3,4-c]quinolin-4-yl)amino)-1H-pyrazole-5-carbonitrile] | 6.00 to 7.00 | > 8.00 |
| COCCn1ncc(Nc2nc3ccc(S(C)(=O)=O)cc3c3cn[nH]c23)c1C#N [Example 249, 1-(2-methoxyethyl)-4-((8-(methylsulfonyl)-3H-pyrazolo[3,4-c]quinolin-4-yl)amino)-1H-pyrazole-5-carbonitrile] | 6.00 to 7.00 | 7.00 to 8.00 |
| COc1cccc2nc(Nc3cnn(CCF)c3)c3[nH]ncc3c12 [Example 253, N-(1-(2-fluoroethyl)-1H-pyrazol-4-yl)-9-methoxy-3H-pyrazolo[3,4-c]quinolin-4-amine] | 6.00 to 7.00 | > 8.00 |
| COc1cccc2nc(Nc3cnn(CC(C)(C)O)c3)c3[nH]ncc3c12 [Example 256, 1-(4-((9-methoxy-3H-pyrazolo[3,4-c]quinolin-4-yl)amino)-1H-pyrazol-1-yl)-2-methylpropan-2-ol] | 6.00 to 7.00 | > 8.00 |
| COc1cccc2nc(Nc3cnn(CC(F)(F)F)c3)c3[nH]ncc3c12 [Example 257, 9-methoxy-N-(1-(2,2,2-trifluoroethyl)-1H-pyrazol-4-yl)-3H-pyrazolo[3,4-c]quinolin-4-amine] | 6.00 to 7.00 | > 8.00 |
| C=C(C)Cn1cc(Nc2nc3cccc(OC)c3c3cn[nH]c23)cn1 [Example 258, 9-methoxy-N-(1-(2-methylallyl)-1H-pyrazol-4-yl)-3H-pyrazolo[3,4-c]quinolin-4-amine] | 6.00 to 7.00 | > 8.00 |
| COc1cccc2nc(Nc3cnn(C=C(C)C)c3)c3[nH]ncc3c12 [Example 259, 9-methoxy-N-(1-(2-methylprop-1-en-1-yl)-1H-pyrazol-4-yl)-3H-pyrazolo[3,4-c]quinolin-4-amine] | 6.00 to 7.00 | > 8.00 |
| CS(=O)(=O)c1ccc2nc(Nc3cnn(CC(F)(F)F)c3)c3[nH]ncc3c2c1 [Example 261, 8-(methylsulfonyl)-N-(1-(2,2,2-trifluoroethyl)-1H-pyrazol-4-yl)-3H-pyrazolo[3,4-c]quinolin-4-amine] | 7.00 to 8.00 | > 8.00 |

| SMILES | pIC50 [1] | pIC50 [2] |
| --- | --- | --- |
| CC(C)(O)Cn1cc(Nc2nc3ccc(S(C)(=O)=O)cc3c3cn[nH]c23)cn1 [Example 262, 2-methyl-1-(4-((8-(methylsulfonyl)-3H-pyrazolo[3,4-c]quinolin-4-yl)amino)-1H-pyrazol-1-yl)propan-2-ol] | 7.00 to 8.00 | > 8.00 |
| CC(C)=Cn1cc(Nc2nc3ccc(S(C)(=O)=O)cc3c3cn[nH]c23)cn1 [Example 263, N-(1-(2-methylprop-1-en-1-yl)-1H-pyrazol-4-yl)-8-(methylsulfonyl)-3H-pyrazolo[3,4-c]quinolin-4-amine] | 7.00 to 8.00 | > 8.00 |
| C=C(C)Cn1cc(Nc2nc3ccc(S(C)(=O)=O)cc3c3cn[nH]c23)cn1 [Example 264, N-(1-(2-methylallyl)-1H-pyrazol-4-yl)-8-(methylsulfonyl)-3H-pyrazolo[3,4-c]quinolin-4-amine] | 7.00 to 8.00 | > 8.00 |
| COc1ccc2nc(Nc3cnn(CC(C)C)c3)c3[nH]ncc3c2c1 [Example 285, N-(1-isobutyl-1H-pyrazol-4-yl)-8-methoxy-3H-pyrazolo[3,4-c]quinolin-4-amine] | 6.00 to 7.00 | 7.00 to 8.00 |
| COc1ccc2nc(Nc3cnn(C(C)(C)C)c3)c3[nH]ncc3c2c1 [Example 286, N-(1-(tert-butyl)-1H-pyrazol-4-yl)-8-methoxy-3H-pyrazolo[3,4-c]quinolin-4-amine] | 6.00 to 7.00 | > 8.00 |
| COCCCn1cc(Nc2nc3ccc(OC)cc3c3cn[nH]c23)cn1 [Example 287, 8-methoxy-N-(1-(3-methoxypropyl)-1H-pyrazol-4-yl)-3H-pyrazolo[3,4-c]quinolin-4-amine] | 7.00 to 8.00 | > 8.00 |
| COc1cc(OC)c2nc(Nc3ccc(N4CCOCC4)cc3)c3[nH]ncc3c2c1 [Example 288, 6,8-dimethoxy-N-(4-morpholinophenyl)-3H-pyrazolo[3,4-c]quinolin-4-amine] | 6.00 to 7.00 | 7.00 to 8.00 |
| COc1cc(OC)c2nc(Nc3cnn(C4CCOCC4)c3)c3[nH]ncc3c2c1 [Example 289, 6,8-dimethoxy-N-(1-(tetrahydro-2H-pyran-4-yl)-1H-pyrazol-4-yl)-3H-pyrazolo[3,4-c]quinolin-4-amine] | 6.00 to 7.00 | 7.00 to 8.00 |
| COCCCn1cc(Nc2nc3c(OC)cc(OC)cc3c3cn[nH]c23)cn1 [Example 290, 6,8-dimethoxy-N-(1-(3-methoxypropyl)-1H-pyrazol-4-yl)-3H-pyrazolo[3,4-c]quinolin-4-amine] | 6.00 to 7.00 | 7.00 to 8.00 |
| COc1ccc2nc(Nc3cnn(C(C)C)c3)c3[nH]ncc3c2c1 [Example 292, N-(1-isopropyl-1H-pyrazol-4-yl)-8-methoxy-3H-pyrazolo[3,4-c]quinolin-4-amine] | 7.00 to 8.00 | 7.00 to 8.00 |
| COc1ccc2nc(Nc3cnn(C4CC4)c3)c3[nH]ncc3c2c1 [Example 293, N-(1-cyclopropyl-1H-pyrazol-4-yl)-8-methoxy-3H-pyrazolo[3,4-c]quinolin-4-amine] | 7.00 to 8.00 | 7.00 to 8.00 |
| COc1ccc2nc(Nc3ccc(N4CCN(CCO)CC4)cc3)c3[nH]ncc3c2c1 [Example 297, 2-(4-(4-((8-methoxy-3H-pyrazolo[3,4-c]quinolin-4-yl)amino)phenyl)piperazin-1-yl)ethan-1-ol] | 7.00 to 8.00 | 7.00 to 8.00 |
| COc1ccc2nc(Nc3cnn(CC(C)(C)O)c3)c3[nH]ncc3c2c1 [Example 298, 1-(4-((8-methoxy-3H-pyrazolo[3,4-c]quinolin-4-yl)amino)-1H-pyrazol-1-yl)-2-methylpropan-2-ol] | 6.00 to 7.00 | 7.00 to 8.00 |
| COc1ccc2nc(Nc3cnn(C4CCN(C(C)(C)C)CC4)c3)c3[nH]ncc3c2c1 [Example 300, N-(1-(1-(tert-butyl)piperidin-4-yl)-1H-pyrazol-4-yl)-8-methoxy-3H-pyrazolo[3,4-c]quinolin-4-amine] | 6.00 to 7.00 | 7.00 to 8.00 |
| COc1ccc2nc(Nc3cnn(C(C)(C)C#N)c3)c3[nH]ncc3c2c1 [Example 301, 2-(4-((8-methoxy-3H-pyrazolo[3,4-c]quinolin-4-yl)amino)-1H-pyrazol-1-yl)-2-methylpropanenitrile] | 7.00 to 8.00 | > 8.00 |
| COc1ccc(Nc2nc3cc(S(C)(=O)=O)ccc3c3cn[nH]c23)cc1OC [Example 302, N-(3,4-dimethoxyphenyl)-7-(methylsulfonyl)-3H-pyrazolo[3,4-c]quinolin-4-amine] | 6.00 to 7.00 | 6.00 to 7.00 |
